Test results from patent publication US8592467B2, “Benzothiazole cyclobutyl amine derivatives” (Abbvie Inc., priority 2005, dated 2013).

| melting point | SMILES |
| --- | --- |
| 139 to 140 °C | O=c1cccnn1-c1ccc2nc([C@H]3C[C@H](N4CCCCC4)C3)sc2c1 [Example 48A, Trans-2-[2-(3-piperidin-1-ylcyclobutyl)-1,3-benzothiazol-6-yl]pyridazin-3(2H)-one] |
| 127 to 128 °C | O=c1cccnn1-c1ccc2nc([C@H]3C[C@@H](N4CCCCC4)C3)sc2c1 [Example 48B, Cis-2-[2-(3-piperidin-1-ylcyclobutyl)-1,3-benzothiazol-6-yl]pyridazin-3(2H)-one] |
